Where a name gives a salt, the structure may show the parent alone.
Legend:
[1] = test system: DMBA induced mammary carcinoma; assay: DMBA induced mammary carcinoma in rats, tumor size; assay type: in vivo, Sprague-Dawley female rats; conditions: rat
Protocol: Rats were treated either with vehicle (control), 17α-dihydroequilin sulfate, or tamoxifen. In addition, one group of rats were ovariectomized after tumor development and then treated with vehicle. The animals were treated for a 4 week period. Tumor volumes were measured weekly.

[2] = test system: MCF-7 (estrogen receptor positive) human breast cancer cell line; assay: Cell cycle phase distribution by flow cytometric DNA analysis in MCF-7 cells; assay type: cell-based; conditions: for shift of cells from the resting G1 phase to the proliferative S phase (estrogenic activity): compound alone, 0.1 μM; for prevention of E2 induced proliferation (shift from G1 to S phase): in combination with E2; for % G1 / % G2/M / % S: 24 hours
Protocol: (§1) In the in vitro standard pharmacological test procedure, 17α-dihydroequilin was evaluated as a representative compound in MCF-7 (estrogen receptor positive) and […] (estrogen receptor negative) human breast cancer cell lines to determine the effect of the compounds of this invention on cell proliferation as measured by the percent of the cells present in the G1, S, and G2/M phases of the cell cycle. Briefly, the cell lines were plated in T-25 tissue culture flasks at an initial density of between 50,000 and 100,000 cells/flask and incubated for a period of 24 hours in phenol-red free IMEM medium supplemented with dextran-coated-charcoal stripped fetal bovine serum (10%), glutamine (5 mg/mL) and gentamycin sulfate (2 mg/mL).

[3] = test system: MDA-231 (estrogen receptor negative) human breast cancer cell line; assay: Cell cycle phase distribution by flow cytometric DNA analysis in MDA-231 cells; assay type: cell-based; conditions: for % G1 / % G2/M / % S: 24 hours
Protocol: as §1

[4] = test system: estrogen receptor positive MCF-7 human breast cancer cells; conditions: prevents cells from entering the S phase; cited from earlier work
[5] = rat; 200 μg/day for 3 weeks; cited from earlier work
[6] = test compound (0.1 nM) in combination with E2 (1 nM)

C[C@]12CC[C@H]3C(=CCc4cc(OS(=O)(=O)O)ccc43)[C@@H]1CC[C@H]2O [17α-DHEQ-S, 17α-Dihydroequilin sulfate]
percent change of tumor size from week 0, Week 1 ([1]; daily dose 0.5 mg/kg): 47.2% | percent change of tumor size from week 0, Week 2 ([1]; daily dose 0.5 mg/kg): 75.9% | percent change of tumor size from week 0, Week 3 ([1]; daily dose 0.5 mg/kg): 59.4% | percent change of tumor size from week 0, Week 4 ([1]; daily dose 0.5 mg/kg): 111.6% | percent change of tumor size from week 0, Week 1 ([1]; daily dose 5.0 mg/kg): −18.2% | percent change of tumor size from week 0, Week 2 ([1]; daily dose 5.0 mg/kg): −21.2% | percent change of tumor size from week 0, Week 3 ([1]; daily dose 5.0 mg/kg): −8.2% | percent change of tumor size from week 0, Week 4 ([1]; daily dose 5.0 mg/kg): 3.1% | percent change of tumor size from week 0, Week 1 ([1]; daily dose 25.0 mg/kg): −49.7% | percent change of tumor size from week 0, Week 3 ([1]; daily dose 25.0 mg/kg): −51.2% | percent change of tumor size from week 0, Week 4 ([1]; daily dose 25.0 mg/kg): −46.7%

C[C@]12CC[C@H]3C(=CCc4cc(O)ccc43)[C@@H]1CC[C@H]2O [17α-dihydroequilin]
shift of cells from the resting G1 phase to the proliferative S phase (estrogenic activity) [2]: did not cause a shift of cells from the resting G1 phase to the proliferative S phase | prevention of E2 induced proliferation (shift from G1 to S phase) [2]: prevented the E2 induced proliferation | % G1 [2, 6]: 42% | % G2/M [2, 6]: 15% | % S [2, 6]: 42% | % G1 [3, 6]: 26% | % G2/M [3, 6]: 13% | % S [3, 6]: 60%

C[C@]12CC[C@@H]3c4ccc(O)cc4CC[C@H]3[C@@H]1CC[C@@H]2O [E2, 17β-estradiol]
shift of cells from the G1 phase to the S phase (cell proliferation) ([2]; E2 alone): caused cell proliferation | % G1 ([2]; E2 alone): 29% | % G2/M ([2]; E2 alone): 5% | % S ([2]; E2 alone): 66% | shift of cells from the G1 phase to the S phase (cell proliferation) ([3]; E2 alone): this shift was not observed | % G1 ([3]; E2 alone): 38% | % G2/M ([3]; E2 alone): 17% | % S ([3]; E2 alone): 45%

CC/C(=C(\c1ccccc1)c1ccc(OCCN(C)C)cc1)c1ccccc1 [Tamoxifen, Z-1-(4β-dimethylaminoethoxyphenyl) 1,2-diphenyl but-1-ene citratel]
shift of cells from the resting G1 phase to the proliferative S phase (estrogenic activity) [2]: A similar result was observed | prevention of E2 induced proliferation (shift from G1 to S phase) [2]: A similar result was obtained | % G1 [2, 6]: 40% | % G2/M [2, 6]: 14% | % S [2, 6]: 46% | inhibition of E2 stimulated cell growth [4]: inhibit cell E2 stimulated cell growth | reduction in tumor size (in words) ([1]; 4 week treatment): caused a reduction in tumor size | percent change of tumor size from week 0, Week 2 ([1]; daily dose 2.0 mg/kg): −18.7% | percent change of tumor size from week 0, Week 3 ([1]; daily dose 2.0 mg/kg): −28.5% | percent change of tumor size from week 0, Week 4 ([1]; daily dose 2.0 mg/kg): −20.1% | accumulation of administered [3H]-E2 in tissue [5]: prevents the accumulation of administered [^3H]-E2 in uterine, vaginal, and mammary tumor tissue | % G1 [3, 6]: 28% | % G2/M [3, 6]: 14% | % S [3, 6]: 58%

— patent US7005429B2, “Method of treating estrogen receptor positive carcinoma with 17 α-dihydroequilin” (Wyeth, priority 1991, dated 2006)
